The test system of one data set is Spodoptera littoralis. Nature of the data set: Spodoptera littoralis (Egyptian cotton leaf worm) cotton leaf disc spray test. Format: in vivo. The settings on record: foliar, 72 h, application rate 200 ppm, L1 larvae, 3 days after infestation, vs untreated, read-out: control (at least one of mortality, anti-feedant effect, growth inhibition). On the procedure: Spodoptera littoralis (Egyptian Cotton Leaf Worm)
Cotton leaf discs were placed on agar in 24-well microtiter plates and sprayed with aqueous test solutions prepared from 10′000 ppm DMSO stock solutions. After drying the leaf discs were infested with five L1 larvae. The samples were assessed for mortality, anti-feedant effect, and growth inhibition in comparison to untreated samples 3 days after infestation. Control of Spodoptera littoralis by a test sample is when at least one of mortality, anti-feedant effect, and growth inhibition is higher than the untreated sample.

For the next data set, the system named is Thrips tabaci. Nature of the data set: Thrips tabaci (onion thrips) sunflower leaf disc spray test. Format: in vivo. Particulars: foliar, 144 h, application rate 200 ppm, population of mixed ages, 6 days after infestation. How it is done: Thrips tabaci (Onion Thrips):
Sunflower leaf discs were placed on agar in 24-well microtiter plates and sprayed with aqueous test solutions prepared from 10′000 ppm DMSO stock solutions. After drying the leaf discs were infested with a Thrips population of mixed ages. The samples were assessed for mortality 6 days after infestation.

The test system of the next data set is Diabrotica balteata. Nature of the data set: Diabrotica balteata (corn root worm) maize sprout spray test. Format: in vivo. The settings on record: 96 h, application rate 200 ppm, L2 larvae, 4 days after infestation, vs untreated, read-out: effect in at least one of the two categories (mortality or growth inhibition). How it is done: Diabrotica balteata, (Corn Root Worm)
Maize sprouts, placed on an agar layer in 24-well microtiter plates were treated with aqueous test solutions prepared from 10′000 ppm DMSO stock solutions by spraying. After drying, the plates were infested with L2 larvae (6 to 10 per well). The samples were assessed for mortality and growth inhibition in comparison to untreated samples 4 days after infestation. The following compounds gave an effect of at least 80% in at least one of the two categories (mortality or growth inhibition) at an application rate of 200 ppm: 1, 2, 3, 4, 7, 8, 9, 11, 12, 13, 14, 15, 16, 17, 18, 19, 20, 21, 27, 28 and 29.

The next data set has as its system Euschistus heros. Nature of the data set: Euschistus heros (neotropical brown stink bug) soybean leaf spray test. Format: in vivo. Particulars: 120 h, application rate 200 ppm, N2 nymphs, 5 days after infestation, vs untreated, read-out: effect in at least one of the two categories (mortality or growth inhibition). On the procedure:
Euschistus heros (Neotropical Brown Stink Bug)
Soybean leaves on agar in 24-well microtiter plates were sprayed with aqueous test solutions prepared from 10′000 ppm DMSO stock solutions. After drying the leaves were infested with N2 nymphs. The samples were assessed for mortality and growth inhibition in comparison to untreated samples 5 days after infestation. The following compounds gave an effect of at least 80% in at least one of the two categories (mortality or growth inhibition) at an application rate of 200 ppm: 1, 2, 3, 7, 8, 9, 12, 13, 14, 15, 17, 18, 21, 25, 26, 27, 28 and 29.

For another data set, the system named is Plutella xylostella. Nature of the data set: Plutella xylostella (diamond back moth) artificial diet test. Format: in vivo. Particulars: 120 h, application rate 200 ppm, L2 larvae, 5 days after infestation, vs untreated, read-out: effect in at least one of the two categories (mortality or growth inhibition). On the procedure: Plutella xylostella (Diamond Back Moth):
24-well microtiter plates with artificial diet were treated with aqueous test solutions prepared from 10′000 ppm DMSO stock solutions by pipetting. After drying, the plates were infested with L2 larvae (10 to 15 per well). The samples were assessed for mortality and growth inhibition in comparison to untreated samples 5 days after infestation. The following compounds gave an effect of at least 80% in at least one of the two categories (mortality or growth inhibition) at an application rate of 200 ppm: 1, 2, 3, 4, 7, 8, 9, 10, 11, 12, 13, 14, 15, 16, 17, 18, 19, 20, 21, 22, 23, 24, 26, 27, 28 and 29.

A further data set deals with Tetranychus urticae. Nature of the data set: Tetranychus urticae (two-spotted spider mite) bean leaf disc spray test. Format: in vivo. Particulars: foliar, 192 h, application rate 200 ppm, 8 days after infestation, read-out: mortality on mixed population (mobile stages). How it is done:
Tetranychus urticae (Two-Spotted Spider Mite):
Bean leaf discs on agar in 24-well microtiter plates were sprayed with aqueous test solutions prepared from 10′000 ppm DMSO stock solutions. After drying the leaf discs were infested with a mite population of mixed ages. The samples were assessed for mortality on mixed population (mobile stages) 8 days after infestation.

Consider eight compounds from US11040962B2, “Pesticidally active pyrazole derivatives” (SYNGENTA PARTICIPATIONS AG, priority 2017, dated 2021).

Where only a bound is given, the exact number is not on record here.

For `CN(C(=O)c1cc(-c2cn(-c3c(C(F)(F)F)c(C(F)(F)C(F)(F)F)nn3C)nn2)sc1C#N)C1(C#N)CC1` [Compound 5, 2-cyano-N-(1-cyanocyclopropyl)-N-methyl-5-[1-[2-methyl-5-(1,1,2,2,2-pentafluoroethyl)-4-(trifluoromethyl)pyrazol-3-yl]triazol-4-yl]thiophene-3-carboxamide], the melting point (as a rule, the temperature of the solid-liquid transition) lay in the range of 185 to 187 °C.
The same measure, in the same setting: next, `CCN(C(=O)c1cc(-c2cn(-c3c(C(F)(F)F)c(C(F)(F)C(F)(F)F)nn3C)nn2)sc1C#N)C1(C#N)CC1` [Compound 6, 2-cyano-N-(1-cyanocyclopropyl)-N-ethyl-5-[1-[2-methyl-5-(1,1,2,2,2-pentafluoroethyl)-4-(trifluoromethyl)pyrazol-3-yl]triazol-4-yl]thiophene-3-carboxamide]: 62 to 64 °C.
On to `CN(C(=O)c1cc(-c2cc(-c3c(C(F)(F)F)c(C(F)(F)C(F)(F)F)nn3C)no2)sc1C#N)C1CC1` [Compound 14, 2-cyano-N-cyclopropyl-N-methyl-5-[3-[2-methyl-5-(1,1,2,2,2-pentafluoroethyl)-4-(trifluoromethyl)pyrazol-3-yl]isoxazol-5-yl]thiophene-3-carboxamide], for which the percent control (mortality, anti-feedant effect or growth inhibition) at 200 ppm in the data set with Spodoptera littoralis was not below 80%. Besides, the mortality at 200 ppm in the data set on Thrips tabaci and in the data set on Tetranychus urticae was not below 80% throughout. In addition, the percent effect (mortality or growth inhibition) at 200 ppm with Diabrotica balteata, in the data set with Euschistus heros and with Plutella xylostella was not below 80% each time.
On to `CCN(C(=O)c1cc(-c2cc(-c3c(C(F)(F)F)c(C(F)(F)C(F)(F)F)nn3C)no2)sc1C#N)C1CC1` [Compound 15, 2-cyano-N-cyclopropyl-N-ethyl-5-[3-[2-methyl-5-(1,1,2,2,2-pentafluoroethyl)-4-(trifluoromethyl)pyrazol-3-yl]isoxazol-5-yl]thiophene-3-carboxamide], for which the percent control (mortality, anti-feedant effect or growth inhibition) at 200 ppm in the data set with Spodoptera littoralis is not below 80%. Also, the mortality at 200 ppm in the data set with Thrips tabaci and in the data set with Tetranychus urticae was not below 80% in each case. For the same compound, the percent effect (mortality or growth inhibition) at 200 ppm in the data set on Diabrotica balteata, in the data set with Euschistus heros and in the data set with Plutella xylostella was not below 80% each time.
As to `CN(C(=O)c1cc(-c2cc(-c3c(C(F)(F)F)c(C(F)(F)C(F)(F)F)nn3C)no2)sc1C#N)C1(C#N)CC1` [Compound 17, 2-cyano-N-(1-cyanocyclopropyl)-N-methyl-5-[3-[2-methyl-5-(1,1,2,2,2-pentafluoroethyl)-4-(trifluoromethyl)pyrazol-3-yl]isoxazol-5-yl]thiophene-3-carboxamide], in the data set with Spodoptera littoralis, the percent control (mortality, anti-feedant effect or growth inhibition) at 200 ppm is not below 80%. Besides, the mortality at 200 ppm in the data set with Thrips tabaci and in the data set on Tetranychus urticae was not below 80% each time. Further, the percent effect (mortality or growth inhibition) at 200 ppm with Diabrotica balteata, with Euschistus heros and in the data set on Plutella xylostella was not below 80% throughout.
Turning to `Cn1nc(C(F)(F)C(F)(F)F)c(C(F)(F)F)c1-c1csc(-c2cc(C(=O)NC3CC3)c(C#N)s2)c1` [Compound 27, 2-cyano-N-cyclopropyl-5-[4-[2-methyl-5-(1,1,2,2,2-pentafluoroethyl)-4-(trifluoromethyl)pyrazol-3-yl]-2-thienyl]thiophene-3-carboxamide], the percent control (mortality, anti-feedant effect or growth inhibition) at 200 ppm in the data set with Spodoptera littoralis was not below 80%. The mortality at 200 ppm in the data set with Thrips tabaci and in the data set on Tetranychus urticae was not below 80% each time. In addition, the percent effect (mortality or growth inhibition) at 200 ppm in the data set on Diabrotica balteata, in the data set on Euschistus heros and in the data set with Plutella xylostella was not below 80% in each case.
With `CN(C(=O)c1cc(-c2cc(-c3c(C(F)(F)F)c(C(F)(F)C(F)(F)F)nn3C)cs2)sc1C#N)C1CC1` [Compound 28, 2-cyano-N-cyclopropyl-N-methyl-5-[4-[2-methyl-5-(1,1,2,2,2-pentafluoroethyl)-4-(trifluoromethyl)pyrazol-3-yl]-2-thienyl]thiophene-3-carboxamide], the percent control (mortality, anti-feedant effect or growth inhibition) at 200 ppm with Spodoptera littoralis is not below 80%. The mortality at 200 ppm in the data set with Thrips tabaci and in the data set on Tetranychus urticae was not below 80% in each case. The percent effect (mortality or growth inhibition) at 200 ppm with Diabrotica balteata, with Euschistus heros and in the data set with Plutella xylostella was not below 80% each time.
Turning to `CCN(C(=O)c1cc(-c2cc(-c3c(C(F)(F)F)c(C(F)(F)C(F)(F)F)nn3C)cs2)sc1C#N)C1CC1` [Compound 29, 2-cyano-N-cyclopropyl-N-ethyl-5-[4-[2-methyl-5-(1,1,2,2,2-pentafluoroethyl)-4-(trifluoromethyl)pyrazol-3-yl]-2-thienyl]thiophene-3-carboxamide], the percent control (mortality, anti-feedant effect or growth inhibition) at 200 ppm with Spodoptera littoralis is not below 80%. Besides, the mortality at 200 ppm in the data set on Thrips tabaci and with Tetranychus urticae was not below 80% in each case. Besides, the percent effect (mortality or growth inhibition) at 200 ppm with Diabrotica balteata, in the data set with Euschistus heros and in the data set with Plutella xylostella was not below 80% throughout.
